Laboratory results: PMC10102027, “Helquat dyes targeting G-quadruplexes as a new class of anti-HIV-1 inhibitors” (Scientific Reports, 2023)

Assays:
Format in all cases: cell-based
HIV-1 (NL4-3 strain) = test: CPE-based antiviral assay in HIV-1-infected MT-4 cells (XTT); settings: Human immunodeficiency virus 1, NL43, MT4, 120 h, cytopathic effect-based assay, MT-4 cells infected by HIV-1 (NL4-3 strain), 5 days post-infection
Description: (§1) Based on a facile [2 + 2 + 2]‐cycloisomerization strategy, a robust three‐step synthetic entry into a novel family of helical extended diquats (helquats) was developed. After a straightforward Knoevenagel condensation of the respective helquat parent with different aldehydes (Fig. 2A), more than 500 helquat-based compounds were synthesized and screened for anti-HIV-1 activity in an assay based on the inhibition of the virus-induced cytopathic effect in MT-4 cells, evaluated after 5 days post-infection by an XTT assay. In parallel with the screening, the XTT assay was also used to determine the cytotoxicity of all compounds (Fig. 2B; for more information on the synthesis and characterization of the compounds, see the Supplementary Information). […]
(§2) XTT screening. MT-4 cells were seeded in 80 µl of the RPMI without Phenol Red in the amount of 3x10^4 cells per well of a 96-well plate. 10 µl of tested compounds (500 µM at 5% DMSO) or controls (5% DMSO at PBS, AZT 1mM, SQV 100 µM) were added to the cells; after one-hour incubation at 37 °C, HIV-1 (NL4-3 strain) was added with MOI = 0.05 and the infected cells were cultivated for five days.
The viability of the cells was measured by the XTT cell viability and proliferation assay. Briefly, 50 µl of the XTT solution with the addition of PMS (both VWR) was added to the cultivation media and incubated in a humidified incubator maintained at 37 °C with 5% CO2 for four hours, after which absorbance at 560 nm was measured on a VICTOR plate reader (PerkinElmer). […]
(§3) For compounds selected as hits in the initial screening, the effective concentration that inhibits 50% of the viral activity (EC50) and the cytotoxic concentration that reduces the MT -4 cell viability by 50% (CC50) were determined. Viral activity was evaluated after five days as an HIV-1-induced cytopathic effect quantified by the XTT assay. Selected hits were tested at two-fold serial dilutions from 50 µM concentration, and the drug concentrations required to reduce the viral cytopathic effect by 50% (EC 50) as well as the drug concentrations that reduced MT-4 cell viability by 50% (CC50) were calculated by nonlinear regression using GraphPad Prism v.8.0.0 (GraphPad Software).

in vitro = settings: human
Description: as §1, §2
The viability of the cells was measured by the XTT cell viability and proliferation assay. Briefly, 50 µl of the XTT solution with the addition of PMS (both VWR) was added to the cultivation media and incubated in a humidified incubator maintained at 37 °C with 5% CO2 for four hours, after which absorbance at 560 nm was measured on a VICTOR plate reader (PerkinElmer).
The cytotoxicity of the tested compounds was evaluated separately without virus addition and analysed by the same assay.
as §3

HIV-1 [1] = test: Adsorption assay (RT activity in supernatant); settings: 10 µM, compound and virions added to MT-4 cells simultaneously, washed out after 2 h, RT activity 5 days after infection
Description: (§4) To address virion binding and entry in a competitive setting, we performed an adsorption assay where test compounds and virions were added to MT-4 cells simultaneously and were washed out after 2 h of incubation. In parallel, we performed a replication assay where MT-4 cells were infected with HIV-1 and the tested compounds were added 1 h later. In both cases, the infection was evaluated by measuring reverse transcriptase activity in a cell-free supernatant 5 days after the infection (Fig. 3). As controls, PBS (phosphate-buffered saline) and inhibitors of different HIV-1 life-cycle steps were used: AMD (AMD3100), an inhibitor of gp120 attachment to CXCR4 receptors of the target cell, thus preventing HIV-1 adsorption and entry; AZT (azidothymidine), an inhibitor of reverse transcriptase; and RAL (raltegravir), an integrase inhibitor.
(§5) MT-4 cells were seeded in 80 µl of the Roswell Park Memorial Institute (RPMI) medium in the amount of 2 × 10^5 cells per well of a 96-well plate, and 10 µl of the virus stock were immediately added with the final multiplicity of infection (MOI) of 0.05. For a replication assay, the infected cells were incubated at 37 °C for 1 h before the addition of compounds being tested (10 µM final concentration) and subsequently cultivated at 37 °C for another 5 days. For an adsorption test, by contrast, the compounds (10 µM final concentration) were added simultaneously with the virus, and after 2 h of incubation, the cells were washed three times with PBS to remove the compounds and unbound virions; after the addition of 100 µl of the RPMI medium, the cells were cultivated at 37 °C for 5 days. Five days post-infection, aliquots of virus-containing cell-free supernatants were harvested and analysed by reverse transcriptase (RT) assay (described in the Supplementary Information). The experiments were performed as biological replicates where the sample size for each condition was n = 3.
(§6) RT assay. The reverse transcriptase (RT) activity in a cell-free supernatant was assessed by an α-32P RT assay. Briefly, the RT activity in the culture medium, which corresponded to the amount of HIV-1, was used to produce a DNA copy of an RNA template by extending a complementary oligo dT DNA primer with radiolabelled nucleotides. A reaction mixture containing 50 mM Tris-HCl pH 7.8, 75 mM KCl, 2 mM DTT, 5 mM MgCl2 and 0.5% NP-40 (all Sigma-Aldrich), 5 µg per ml of poly (rA)-poly (dT) (The Midlan Certified Reagent Company) with 1 µl 10-mCi/ml [α-32P]dTTP (American Radiolabeled Chemicals) per ml, and the tested sample was incubated at 37°C for two hours, after which 10 µl were spotted on DEAE blotting paper (PerkinElmer) and air-dried. After five washes with SSC buffer (0.15 M NaCl, 0.015 M sodium citrate) and three additional washes with 85% ethanol, the blotting paper was exposed to Phosphoscreen overnight, which was scanned on a Typhoon 9410 Phosphorimager instrument (GE Healthcare). The intensity of the dots was analysed by the ImageQuant software (GE Healthcare).

HIV-1 [2] = test: Replication assay (RT activity in supernatant); settings: 10 µM, compound added 1 h after infection of MT-4 cells, RT activity 5 days after infection
Description: as §4, §5, §6

Compound: Cc1c(C)c2c(c3c1CC[n+]1ccc(/C=C/c4c5ccccc5c(C)c5ccccc45)cc1-3)-c1cc(/C=C/c3c4ccccc4c(C)c4ccccc34)cc[n+]1CC2 [Compound 1]
- EC50 (HIV-1 (NL4-3 strain)): < 1 µM
- CC50 at 5 days (in vitro): > 50 µM
- effect on virus adsorption (HIV-1 [1]): inhibited neither adsorption nor replication, or their effect was weak
- effect on viral replication (HIV-1 [2]): inhibited neither adsorption nor replication, or their effect was weak

Compound: CN1/C(=C/c2cc3[n+](c4ccccc24)CCCc2ccc4c(c2-3)-c2cccc[n+]2CCC4)Sc2ccccc21 [Compound 2]
- EC50 (HIV-1 (NL4-3 strain)): < 1 µM
- CC50 at 5 days (in vitro): 24.4 µM
- effect on virus adsorption (HIV-1 [1]): inhibited adsorption

Compound: C(=C\c1cccc2[n+]1CCc1ccc3c(c1-2)-c1cccc(/C=C/c2ccc(C(=C(c4ccccc4)c4ccccc4)c4ccccc4)cc2)[n+]1CC3)/c1ccc(C(=C(c2ccccc2)c2ccccc2)c2ccccc2)cc1 [Compound 4]
- EC50 (HIV-1 (NL4-3 strain)): 1.51 µM
- CC50 at 5 days (in vitro): > 50 µM
- effect on virus adsorption (HIV-1 [1]): inhibited adsorption

Compound: Cc1c(C)c2c(c3c1CC[n+]1ccc(/C=C/c4ccc5c(c4)CCO5)cc1-3)-c1cc(/C=C/c3ccc4c(c3)CCO4)cc[n+]1CC2 [Compound 5]
- EC50 (HIV-1 (NL4-3 strain)): 1.67 µM
- CC50 at 5 days (in vitro): > 50 µM
- effect on virus adsorption (HIV-1 [1]): inhibited neither adsorption nor replication, or their effect was weak
- effect on viral replication (HIV-1 [2]): inhibited neither adsorption nor replication, or their effect was weak

Compound: C(=C\c1cc2ccccc2[nH]1)/c1cc[n+]2c(c1)-c1c(ccc3c1-c1cccc[n+]1CCC3)CCC2 [Compound 7]
- EC50 (HIV-1 (NL4-3 strain)): 1.79 µM
- CC50 at 5 days (in vitro): > 50 µM
- effect on virus adsorption (HIV-1 [1]): minimal or no effect on virus adsorption
- effect on viral replication (HIV-1 [2]): significantly impairing viral replication

Compound: Cc1c(C)c2c(c3c1CC[n+]1ccc(/C=C/c4ccc(N(C)C)cc4)cc1-3)-c1cc(/C=C/c3ccc(N(C)C)cc3)cc[n+]1CC2 [Compound 8]
- EC50 (HIV-1 (NL4-3 strain)): 1.79 µM
- CC50 at 5 days (in vitro): > 50 µM
- effect on virus adsorption (HIV-1 [1]): inhibited adsorption

Compound: Cn1c(/C=C/c2cccc3[n+]2CCc2ccc4c(c2-3)-c2cccc(/C=C/c3cc5ccccc5n3C)[n+]2CC4)cc2ccccc21 [Compound 9]
- EC50 (HIV-1 (NL4-3 strain)): 1.96 µM
- CC50 at 5 days (in vitro): > 50 µM
- effect on virus adsorption (HIV-1 [1]): inhibited adsorption

Compound: CN1/C(=C/c2cccc3[n+]2CCCc2ccc4c(c2-3)-c2cccc(/C=C3\Sc5ccccc5N3C)[n+]2CCC4)Sc2ccccc21 [Compound 10]
- EC50 (HIV-1 (NL4-3 strain)): 2.18 µM
- CC50 at 5 days (in vitro): > 50 µM
- effect on virus adsorption (HIV-1 [1]): inhibited neither adsorption nor replication, or their effect was weak
- effect on viral replication (HIV-1 [2]): inhibited neither adsorption nor replication, or their effect was weak

Compound: Cc1c(C)c2c(c3c1CC[n+]1ccc(/C=C/c4ccc(-c5ccccc5)s4)cc1-3)-c1cc(/C=C/c3ccc(-c4ccccc4)s3)cc[n+]1CC2 [Compound 11]
- EC50 (HIV-1 (NL4-3 strain)): 2.64 µM
- CC50 at 5 days (in vitro): > 50 µM
- effect on virus adsorption (HIV-1 [1]): inhibited adsorption

Compound: COc1ccc(/C=C/c2cc[n+]3c(c2)-c2c(c(C)c(C)c4c2-c2cc(/C=C/c5ccc(OC)cc5OC)cc[n+]2CC4)CC3)c(OC)c1 [Compound 13]
- EC50 (HIV-1 (NL4-3 strain)): 2.69 µM
- CC50 at 5 days (in vitro): > 50 µM
- effect on virus adsorption (HIV-1 [1]): inhibited neither adsorption nor replication, or their effect was weak
- effect on viral replication (HIV-1 [2]): inhibited neither adsorption nor replication, or their effect was weak

Compound: Cc1c(C)c2c(c3c1CC[n+]1ccc(/C=C/c4c[nH]c5ccc(Br)cc45)cc1-3)-c1cc(/C=C/c3c[nH]c4ccc(Br)cc34)cc[n+]1CC2 [Compound 17]
- EC50 (HIV-1 (NL4-3 strain)): 3.01 µM
- CC50 at 5 days (in vitro): > 50 µM
- effect on virus adsorption (HIV-1 [1]): inhibited neither adsorption nor replication, or their effect was weak
- effect on viral replication (HIV-1 [2]): inhibited neither adsorption nor replication, or their effect was weak

Compound: Cc1c(C)c2c(c3c1CC[n+]1ccc(/C=C/c4c[nH]c5ccccc45)cc1-3)-c1cc(/C=C/c3c[nH]c4ccccc34)cc[n+]1CC2 [Compound 18]
- EC50 (HIV-1 (NL4-3 strain)): 3.18 µM
- CC50 at 5 days (in vitro): > 50 µM
- effect on virus adsorption (HIV-1 [1]): inhibited neither adsorption nor replication, or their effect was weak
- effect on viral replication (HIV-1 [2]): inhibited neither adsorption nor replication, or their effect was weak

Compound: COc1ccc(/C=C/c2cc[n+]3c(c2)-c2c(c(C)c(C)c4c2-c2cc(/C=C/c5ccc(OC)c6ccccc56)cc[n+]2CC4)CC3)c2ccccc12 [Compound 19]
- EC50 (HIV-1 (NL4-3 strain)): 3.39 µM
- CC50 at 5 days (in vitro): > 50 µM
- effect on virus adsorption (HIV-1 [1]): inhibited neither adsorption nor replication, or their effect was weak
- effect on viral replication (HIV-1 [2]): inhibited neither adsorption nor replication, or their effect was weak
